Experimental data published in patent US12702689B2, “Anti-inflammatory compositions, and uses thereof” (P.L. THOMAS & CO., INC., priority 2022, dated 2026).

What was measured:
[1] = tested on: ovalbumin-induced allergic airway inflammation (lung); test: Lung tissue histology and scoring in OVA allergic airway model; assay type: in vivo, BALB/cJ female mice; details: OVA+AKBA mice, 100 mg/kg AKBA
Source text: Allergic airway phenotype was induced by using an ovalbumin (OVA, hen egg) sensitization and challenge model as previously described with modifications [Beigelman, A. et al. Azithromycin attenuates airway inflammation in a noninfectious mouse model of allergic asthma. Chest 136, 498-506 (2009)]. Briefly (FIG. 1), two groups of mice (OVA control and OVA+AKBA) were sensitized with intraperitoneal ovalbumin plus alum on days 0 and 7, challenged for 3 days (day 14 to day 17) via nebulized OVA at 1% in PBS for 30 mins, and harvested 48 hr after final challenge. Supplementation groups (OVA+AKBA) were given 100 mg/kg of water soluble AKBA (pH 7) (PLT Health Solutions, Morristown, NJ, US) in autoclaved mouse water, via gavage, every other day for 10 days and then every day for the remainder of the experiment (9 days). OVA control and naïve mouse continued to receive normal autoclaved mouse water. Mice were weighted at the beginning and end of the experiment. Experiments involving AKBA were conducted twice, with the first group containing 5 mice per group and the second containing 15 mice per group (5 per group for naive). […]
Lung sectioning and staining was performed by the UConn Health Research Histology Core (Farmington, CT, US). […] Sections from the left lung were evaluated in their entirety and representative were images taken. […]

[2] = tested on: BAL leukocytes and eosinophils; test: BAL fluid total and differential cell counts in OVA allergic airway model; assay type: in vivo, BALB/cJ female mice; details: 100 mg/kg AKBA
[3] = tested on: IL-5, IL-4, IL-13, IL-10 in BAL fluid; test: BAL fluid cytokine markers, multiplex flow-cytometry based assay; assay type: in vivo, BALB/cJ female mice; details: OVA+AKBA mice, 100 mg/kg AKBA
Source text: Allergic airway phenotype was induced by using an ovalbumin (OVA, hen egg) sensitization and challenge model as previously described with modifications [Beigelman, A. et al. Azithromycin attenuates airway inflammation in a noninfectious mouse model of allergic asthma. Chest 136, 498-506 (2009)]. Briefly (FIG. 1), two groups of mice (OVA control and OVA+AKBA) were sensitized with intraperitoneal ovalbumin plus alum on days 0 and 7, challenged for 3 days (day 14 to day 17) via nebulized OVA at 1% in PBS for 30 mins, and harvested 48 hr after final challenge. Supplementation groups (OVA+AKBA) were given 100 mg/kg of water soluble AKBA (pH 7) (PLT Health Solutions, Morristown, NJ, US) in autoclaved mouse water, via gavage, every other day for 10 days and then every day for the remainder of the experiment (9 days). OVA control and naïve mouse continued to receive normal autoclaved mouse water. Mice were weighted at the beginning and end of the experiment. Experiments involving AKBA were conducted twice, with the first group containing 5 mice per group and the second containing 15 mice per group (5 per group for naive). Experiment procedures were identical, and results were pooled for n=20 (n=5 for naive). Animal protocol 102063-0522 was approved by the University of Connecticut Health IACUC board. Experiments were repeated, as stated above, with oral gavages of B. pseudolongum culture in place of AKBA supplementation. Groups were designated as OVA control (n=10), OVA+B. pseudolongum (n=10) and naïve (n=5). OVA+B. pseudolongum groups were given 10^8 CFU B. pseudolongum in culture medium via gavage, every other day for 10 days and then every day for the remainder of the experiment (9 days). Multiple inflammatory mediators were analyzed in the cell-free supernatant of BAL fluid using a multiplex flow-cytometry based assay according to manufacturer's recommendations (BioLegend, San Diego, CA, US). Volume of cell free fluid was concentrated using a 50K centrifugal filter spun at 3000 g for 10-15 minutes. Samples were run on a ZE5 Cell Analyzer (Bio-Rad, Hercules, CA, US) and sample processing was conducting using software provided from the kit's manufacturer (BioLegend, San Diego, CA, US). Serum specific ovalbumin IgE levels was detected by using an ELISA kit with a sensitivity of 3.8 ng/mL per manufacturer's protocol (Cayman Chemical Company, Ann Arbor, MI, US).

OVA-specific IgE = test: Serum OVA-specific IgE, anti-OVA ELISA; assay type: in vivo, BALB/cJ female mice; details: OVA+AKBA mice, 100 mg/kg AKBA; at sacrifice; p=0.3223 vs OVA control
[4] = tested on: gut microbiota including Akkermansia; Bifidobacteria; details: in vitro; cited from earlier work
[5] = tested on: gut microbiome (Bifidobacterium); details: healthy mice; cited from earlier work

SMILES: CC(=O)O[C@@H]1CC[C@@]2(C)[C@@H](CC[C@]3(C)[C@@H]2C(=O)C=C2[C@@H]4[C@@H](C)[C@H](C)CC[C@]4(C)CC[C@]23C)[C@@]1(C)C(=O)O [AKBA, 3-O-acetyl-11-keto-b-boswellic acid]
- histology score: inflammation and airway smooth muscle remodeling ([1]; score 0-3, blinded, p=0.1823 vs OVA control): 2.0±0.49
- histology score: mucus production ([1]; score 0-3, p=0.0278 vs OVA control): 2.0±0.4
- BAL total leukocyte counts lower versus OVA control group ([2]; Mann-Whitney p=0.0002): 46.69%
- BAL total leukocyte counts higher than naïve control ([2]; Mann-Whitney p=0.0212): 60.38%
- percent eosinophil in BAL ([2]; OVA+AKBA mice): 31.4%
- absolute number of eosinophils in BAL ([2]; OVA+AKBA mice, mean±SD): 17317.95±5552.67 eosinophil/mL
- IL-10 in BAL fluid ([3]; not significant vs OVA control): 19.77 ± 12.19 ng/mL
- IL-13 in BAL fluid ([3]; not significant vs OVA control): 4.15 ± 3.15 ng/mL
- IL-5 in BAL fluid ([3]; p=0.0079 vs OVA control): 31.39 ± 17.71 ng/mL
- IL-4 in BAL fluid ([3]; p=0.0229 vs OVA control): 9.30 ± 6.67 ng/mL
- serum OVA-specific IgE (OVA-specific IgE): 1275.98 ± 503.22 ng/mL
- effect on certain gut microbiota including Akkermansia [4]: selectively inhibited
- feeding effect on Bifidobacteria [4]: no direct feeding effect
- relative abundances of Bifidobacterium [5]: increases
